Source: patent publication US8183239B2, “Substituted piperazines and piperidines as modulators of the neuropeptide Y2 receptor” (Janssen Pharmaceutica NV, priority 2005, dated 2012)
pIC50: −log10 of the molar value.

Target: T1, Y2 receptors (Homo sapiens, UniProt P49146)
T1 construct: endogenous in cells; host or cells: KAN-Ts cells (membranes)
T1 sequence (P49146 1-381): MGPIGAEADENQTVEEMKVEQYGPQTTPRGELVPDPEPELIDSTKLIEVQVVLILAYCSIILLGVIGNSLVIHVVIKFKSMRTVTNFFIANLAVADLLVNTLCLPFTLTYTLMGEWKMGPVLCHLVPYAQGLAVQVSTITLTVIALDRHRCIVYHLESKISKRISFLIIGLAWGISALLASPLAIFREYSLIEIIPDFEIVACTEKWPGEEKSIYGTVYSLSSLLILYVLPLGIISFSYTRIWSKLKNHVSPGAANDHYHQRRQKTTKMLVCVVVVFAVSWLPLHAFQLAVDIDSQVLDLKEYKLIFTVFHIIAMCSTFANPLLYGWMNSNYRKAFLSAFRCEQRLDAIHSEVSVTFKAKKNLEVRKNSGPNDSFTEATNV
Assay: Radioligand binding assay ([125I]PYY, KAN-Ts cell membranes)
Conditions: IC50 (nM), Table 1, [125I]PYY 80 pM, average of results
Description: Radioligand Binding Assay
KAN-Ts endogenously expressing Y2 receptors were used for the radioligand binding assay. Cells were grown to confluence on 150 cm^2 tissue culture plates, washed with phosphate-buffered saline (PBS), and scraped into 50 mL tubes. After centrifugation, the supernatant was aspirated, and the pellets frozen and stored at −80° C. Thawed pellets were homogenized with a polytron tissue grinder for 15 sec in 20 mM Tris-HCl, 5 mM EDTA. The homogenate was centrifuged at 800×g for 5 min and the collected supernatant was recentrifuged at 25000×g for 25 min. The resulting pellet was resuspended in binding buffer (20 mM HEPES, 120 mM NaCl, 0.22 mM KH2PO4, 1.3 mM CaCl2, 0.8 mM MgSO4). Membranes were incubated with [^125I]PYY (80 pM) in the presence or absence of test compound for 1 h at rt. The reaction was stopped by filtration through GF/C filter plates pre-soaked in 0.3% polyethylenimine and subsequently washed with Tris 50 mM, 5 mM EDTA buffer. Plates were dried for 1 h in a 55° C. oven, scintillation fluid was added and the radioactivity was counted in a Packard TopCount. Specific binding to the NPY receptor subtypes was determined by radioactivity that was bound in the presence of […]. Each binding experiment was repeated three to eight times, each in duplicate. IC50 values (i.e. concentration of unlabelled peptide or antagonist required to compete for 50% of specific binding to the radioligand) were calculated using the GraphPad Prism software (GraphPad Software Inc., San Diego Calif.) with a fit to a sigmoidal dose response curve. Data for compounds tested are presented in Tables 1 and 2 as an average of results obtained.

`CCC(CC)C(=O)N(c1ccccc1)C1CCN(c2ccc(NC(=O)Nc3c(C)noc3C)cc2F)CC1` [Example 32, N-(1-{4-[3-(3,5-Dimethyl-isoxazol-4-yl)-ureido]-2-fluoro-phenyl}-piperidin-4-yl)-2-ethyl-N-phenyl-butyramide] and `CCC(CC)C(=O)Nc1ccc(N2CCC(N(C(=O)C(CC)CC)c3ccccc3)CC2)c(F)c1` [Example 33, 2-Ethyl-N-{1-[4-(2-ethyl-butyrylamino)-2-fluoro-phenyl]-piperidin-4-yl}-N-phenyl-butyramide] are the same in IC50: 180 nM for the first, 180 nM for the second.

`CCC(CC)C(=O)Nc1ccc(N2CCN(C(C(=O)OC)c3cccc(F)c3)CC2)c(F)c1` (stereo not shown) [Example 34, {4-[4-(2-Ethyl-butyrylamino)-2-fluoro-phenyl]-piperazin-1-yl}-(3-fluoro-phenyl)-acetic acid methyl ester] was tested, and the IC50 was 40 nM.

Same assay, conditions: Table 1, [125I]PYY 80 pM, average of results, read-out: IC50

First: CCNC(=O)C(c1ccccc1)N1CCN(c2ccc(NC(=O)N[C@@H](C)c3ccc(F)cc3)cc2F)CC1 (stereo partly drawn) [Example 28, N-Ethyl-2-[4-(2-fluoro-4-{3-[(S)-1-(4-fluoro-phenyl)-ethyl]-ureido}-phenyl)-piperazin-1-yl]-2-phenyl-acetamide]
Second: COC(=O)C(c1ccccc1)N1CCN(c2ccc(NC(=O)c3ccccc3C)cc2Cl)CC1 (stereo not shown) [Example 39, {4-[2-Chloro-4-(2-methyl-benzoylamino)-phenyl]-piperazin-1-yl}-phenyl-acetic acid methyl ester]
The pIC50 of the first is 0.56 log units lower: 5.54 for the first, 6.10 for the second.

Compared with `CCN(CC)C(=O)C(c1ccccc1)N1CCN(c2ccc(NC(=O)[C@H]3CCOC3)cc2F)CC1` (stereo partly drawn) [Example 29, (S)-Tetrahydro-furan-3-carboxylic acid {4-[4-(diethylcarbamoyl-phenyl-methyl)-piperazin-1-yl]-3-fluoro-phenyl}-amide], `CCN(CC)C(=O)C(c1ccccc1)N1CCN(c2ccc(C(=O)NCc3c(C)noc3C)cc2F)CC1` (stereo not shown) [Example 31, 4-[4-(Diethylcarbamoyl-phenyl-methyl)-piperazin-1-yl]-N-(3,5-dimethyl-isoxazol-4-ylmethyl)-3-fluoro-benzamide] is 0.43 log units higher in pIC50: 7.19 for the first, 7.62 for the second.

Going from `CCN(CC)C(=O)C(c1ccccc1)N1CCN(c2ccc(N(CC)C(=O)N(CC)c3c(C)noc3C)cc2F)CC1` (stereo not shown) [Example 30, 2-(4-{4-[3-(3,5-Dimethyl-isoxazol-4-yl)-1,3-diethyl-ureido]-2-fluoro-phenyl}-piperazin-1-yl)-N,N-diethyl-2-phenyl-acetamide] to `CCC(CC)C(=O)Nc1ccc(N2CCN(C(C(=O)N(CC)CC)c3cccc(F)c3)CC2)c(F)c1` (stereo not shown) [Example 35, N-(4-{4-[Diethylcarbamoyl-(3-fluoro-phenyl)-methyl]-piperazin-1-yl}-3-fluoro-phenyl)-2-ethyl-butyramide], the pIC50 rises from 6.24 to 7.48 (1.24 log units).

Compared with `CCC(CC)C(=O)Nc1ccc(N2CCN(C(C(=O)OC)c3ccc(C#N)cc3)CC2)c(F)c1` (stereo not shown) [Example 36, (4-Cyano-phenyl)-{4-[4-(2-ethyl-butyrylamino)-2-fluoro-phenyl]-piperazin-1-yl}-acetic acid methyl ester], `CCC(CC)C(=O)Nc1ccc(N2CCN(C(C(=O)OC)c3cccc(Cl)c3)CC2)c(F)c1` (stereo not shown) [Example 37, (3-Chloro-phenyl)-{4-[4-(2-ethyl-butyrylamino)-2-fluoro-phenyl]-piperazin-1-yl}-acetic acid methyl ester] is 0.57 log units higher in pIC50: 6.68 for the first, 7.25 for the second. The second is the more potent here.

Going from `CCC(CC)C(=O)Nc1ccc(N2CCN(C(C(=O)OC)c3cccc(F)c3F)CC2)c(F)c1` (stereo not shown) [Example 38, (2,3-Difluoro-phenyl)-{4-[4-(2-ethyl-butyrylamino)-2-fluoro-phenyl]-piperazin-1-yl}-acetic acid methyl ester] to `CCC(CC)C(=O)Nc1cc(F)c(N2CCN(C(C(=O)OC)c3ccccc3)CC2)c(F)c1` (stereo not shown) [Example 40, {4-[4-(2-Ethyl-butyrylamino)-2,6-difluoro-phenyl]-piperazin-1-yl}-phenyl-acetic acid methyl ester], the pIC50 rises from 6.36 to 6.96 (0.60 log units).
